Patent US5225571A, “Substituted dihydroxy-bis-[5-hydroxy-2(5H)-furanone-4-yl]-alkanes as anti-inflammatory agents” (Allergan, Inc., priority 1991, dated 1993)
Like-named read-outs stand apart in the source and are kept apart here.

Molecular target: bee venom phospholipase A2 (Apis mellifera, UniProt P00630)
Assay: biochemical
Format: biochemical
Conditions: read-out: 50% inhibition (IC50) of bee venom phospholipase A2

bee venom phospholipase A2, sequence (P00630 34-167 limits assumed): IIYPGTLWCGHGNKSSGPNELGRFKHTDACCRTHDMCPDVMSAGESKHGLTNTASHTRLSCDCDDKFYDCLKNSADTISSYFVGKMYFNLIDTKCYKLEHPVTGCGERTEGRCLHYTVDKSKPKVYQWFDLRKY

| SMILES | IC50 (pH 7.4) | IC50 |
| --- | --- | --- |
| CC(=O)OC(CCCCCCCCCCCCC(OC(C)=O)C1=CC(=O)OC1O)C1=CC(=O)OC1O (stereo not shown) [Compound 1, 1,14-Diacetoxy-1,14-bis[5-hydroxy-2(5H)-4-furanoyl]tetradecane] | 10 nM | – |
| O=C1C=C(C(CCCCCCCCCCC(OC(=O)Nc2ccccc2)C2=CC(=O)OC2O)OC(=O)Nc2ccccc2)C(O)O1 (stereo not shown) [Compound 2, 1,12-Di(N-phenylcarbamoyl)-1,12-bis[5-hydroxy-2(5H)-furano-4-yl] dodecane] | 30 nM | – |
| CC(C)(C)C(=O)OC(CCCCCCCCCCCCC(OC(=O)C(C)(C)C)C1=CC(=O)OC1O)C1=CC(=O)OC1O (stereo not shown) [Compound 3, 1,14-Di(tert-butanoyloxy)-1,14-bis[5-hydroxy-2(5H)-furano-4-yl]tetradecane] | 20 nM | – |
| CC(C)(C)C(=O)OC(CCCCCCCCCCCCC(OC(=O)C(C)(C)C)C1=CC(=O)OC1OC(=O)Nc1ccccc1)C1=CC(=O)OC1OC(=O)Nc1ccccc1 (stereo not shown) [Compound 4, 1,14-Di-(tert-butanoyloxy)-1,14-bis[5-(N-phenylcarbamoyl)-2(5H)-furano-4-yl]-tetradecane] | – | > 1000 nM |
